In US20110105349A1, “USE OF A MONOPHOSPHATE ESTER OF A PHTHALEIN COMPOUND AS A SUBSTRATE FOR TARTRATE-RESISTANT ACID PHOSPHATASE B5 (TRAP 5B)” (MUNODIAGNOSTIC SYSTEMS LIMITED, priority 2008, published 2011):
Several values for one entry are separate records, joined by “and”; a condition that tells them apart may be missing. Equal values may be shown once. Entries after “also recorded” stand apart in the source; their conditions may differ.

Assays:
TRAP5a [1] = target: T1, TRAP5a (Homo sapiens, UniProt P13686); test: Assay of CM-Sepharose fractions of normal human serum with pNPP- and PTMP-based assays (Example 4, FIG. 3); format: biochemical
T1 construct: Serum-derived TRAP5a and TRAP5b were separated by ion exchange chromatography; from tissue; host or cells: human serum
T1 sequence (P13686 22-325): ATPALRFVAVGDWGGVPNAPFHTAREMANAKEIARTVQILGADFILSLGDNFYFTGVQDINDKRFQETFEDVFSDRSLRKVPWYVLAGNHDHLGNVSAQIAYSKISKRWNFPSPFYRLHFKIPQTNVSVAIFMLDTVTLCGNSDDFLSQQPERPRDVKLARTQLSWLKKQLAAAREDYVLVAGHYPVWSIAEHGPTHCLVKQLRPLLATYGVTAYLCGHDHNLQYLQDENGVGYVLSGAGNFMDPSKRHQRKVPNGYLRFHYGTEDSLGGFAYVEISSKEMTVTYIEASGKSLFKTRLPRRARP
Excerpt: TRAP5a and TRAP5b from normal human serum were separated on a CM-Sepharose column and the fractions assessed for TRAP5b using the pNPP and PTMP-based assays described in Example 3.

TRAP5a [2] = target: T1, TRAP5a; test: Time course of substrate hydrolysis on O1A-coated plates (Example 1, FIG. 1); format: biochemical; conditions: serum-derived TRAP5a; neutral pH (7.0) in Example 1
Procedure: Microtitre plates (Nunc Maxisorp) were coated with mouse anti-TRAP5 (clone O1A), from a solution of a 3.0 mg/L purified Mab IgG in 10 mM phosphate buffered saline (PBS), 100 μL per well and incubated overnight at room temperature. The coated plates were washed three times with 10 mM phosphate buffered saline, 0.05% Tween 20. A stabilising reagent of 5% lactose, 0.5% BSA was added, 250 μL per well, incubated for at least 10 minutes, then the liquid aspirated. The coated plates were dried overnight at 35° C. then stored at 2-8° C. protected from moisture. […]
The TRAP5 protein concentration in the TRAP5a and TRAP5b preparations was determined by a sandwich immunoassay. […] The reactions were stopped by the addition of 100 μL 0.5M HCl and the absorbance at 450 nm was measured. TRAP5 protein concentrations were calculated by reference to a calibration curve prepared from baculovirus-derived recombinant human TRAP5.
(§1) To test for activity towards PTMP, 100 μL of a solution containing 6 mg/mL PTMP dissolved in 125 mM MOPS buffer, pH 7.0 was added per well and incubated for 0-40 min at 37° C. The reactions were stopped at the times indicated by the addition of 50 μL per well of 1M glycine/NaOH, pH11 and the absorbance at […] was measured. […] The reactions were stopped at the times indicated by the addition of 50 μL per well of 0.25 M NaOH and the absorbance at […] was measured.

TRAP5a [3] = target: T1, TRAP5a; test: TRAP5 capture immunoassay, specific activity with each substrate (Example 3); format: biochemical; conditions: for TRAP5 Specific Activity 5A: serum-derived TRAP5a, pNPP at pH 6.1, PTMP and TTMP at pH 7.0
Procedure: (§2) Microtitre plates (Nunc Maxisorp) were coated with mouse anti-TRAP5 (clone O1A), from a solution of a 3.0 mg/L purified Mab IgG in 10 mM phosphate buffered saline (PBS), 100 μL per well and incubated overnight at room temperature. The coated plates were washed three times with 10 mM phosphate buffered saline, 0.05% Tween 20. A stabilising reagent of 5% lactose, 0.5% BSA was added, 250 μL per well, incubated for at least 10 minutes, then the liquid aspirated. The coated plates were dried overnight at 35° C. then stored at 2-8° C. protected from moisture.
(§3) Serum-derived TRAP5a and TRAP5b were separated by ion exchange chromatography using a modification of the procedure described by Lam et al, Clin. Chem. 24(7):1105-1108, 1978. 100-500 mL human serum was adjusted to around pH 5.0 with 100% acetic acid, and optionally diluted with an equal volume of 10 mM sodium phosphate buffer, pH 4.9. After clarification by centrifugation and filtering, the acidified serum was applied to a 1 cm×100-150 cm column of CM-Sepharose (Sigma, part No CCF 100) and the column was developed with a linear NaCl gradient, from 150-800 mM. Fractions containing TRAP5a and TRAP5b activity were identified using a non-capture assay essentially as described by Lam et al Clin. Chem. 24(7):1105-1108, 1978. In some instances the fractions were further assayed for TRAP5 by the immunoassays described below. Fractions containing peak levels of TRAP5a or TRAP5b were separately pooled for further analysis.
(§4) The TRAP5 protein concentration in the TRAP5a and TRAP5b preparations was determined by a sandwich immunoassay. 100-200 μL sample per well was applied to O1A-coated microtitre plates and incubated overnight at 4° C. The plate was washed three times with 10 mM phosphate buffered saline, 0.05% Tween 20, and 100-200 μL of a solution containing the rabbit anti-TRAP5 antibody at a dilution of 1:4000 was added per well. […] The reactions were stopped by the addition of 100 μL 0.5M HCl and the absorbance at 450 nm was measured. TRAP5 protein concentrations were calculated by reference to a calibration curve prepared from baculovirus-derived recombinant human TRAP5.
as §1
TRAP5a and TRAP5b preparations were prepared and quantified with respect to TRAP5 mass as described in Example 3. […]

TRAP5b [4] = test: pH vs activity profile (Example 2, FIG. 2); format: biochemical, human; conditions: substrate 6 mg/mL in MES or MOPS buffers
Procedure: (§5) Since TRAP5 is an acid phosphatase that normally is only active under acidic conditions, the relationship between TRAP5a and TRAP5b enzyme activity and substrate pH using PTMP as substrate over a range of pH values was investigated. The TRAP5 assays were performed essentially as described for Example 1, except that the PTMP substrate was dissolved at 6 mg/mL in a series of 100 mM MES or 100 mM MOPS buffers to give the pH values indicated.

TRAP5a [5] = target: T1, TRAP5a; test: Activity with phthalein monophosphate esters at 0.47 mg/mL, pH 7.4 (Example 8); format: biochemical; design: unit not given beside the values; conditions: 0.47 mg/mL in 100 mM MES pH7.4
Procedure: (§6) To test for activity towards PTMP, 100 μL of a solution containing 6 mg/mL PTMP dissolved in 125 mM MOPS buffer, pH 7.0 was added per well and incubated for 0-40 min at 37° C. The reactions were stopped at the times indicated by the addition of 50 μL per well of 1M glycine/NaOH, pH11 and the absorbance at […] was measured. To test for activity towards TTMP, 100 μL of a solution containing 5 mg/mL TTMP dissolved in 80 mM MOPS buffer, 10% ethanol, pH 7.0 was added per well and incubated for 0-40 min at 37° C. The reactions were stopped at the times indicated by the addition of 50 μL per well of 0.25 M NaOH and the absorbance at […] was measured.
(§7) Where phthalein monophosphate esters were not available commercially, the monophosphate esters were prepared by the method of Bulbenko & Woodbridge (U.S. Pat. No. 4,045,290) by reaction of the appropriate phthalein compound (from Sigma-Aldrich) with phosphorus oxychloride (CAS 10025-87-3), followed by hydrolysis and purification. The monophosphate esters were further purified before use by HPLC chromatography to remove un-reacted phthalein dye. HPLC column 10 mm×150 mm ACE 5 C18 (Advance Chromatography Technologies, UK), load solvent composition, 30% methanol and 70% water containing 0.1% trifluoroacetic acid (TFA); product was eluted by a gradient from 30% methanol 0.1% TFA to 100% methanol 0.1% TFA at 3 mL/minute over 45 minutes.
(§8) Phthalein monophosphate esters prepared in Example 7 were diluted to 0.47 mg/mL in 100 mM MES pH7.4 buffer and applied to an assay as in Example 1.

TRAP5b [6] = test: TRAP5 capture immunoassay, specific activity with each substrate (Example 3); format: biochemical, human; conditions: for Ratio 5B:5A of specific activity / TRAP5 Specific Activity 5B: pNPP at pH 6.1, PTMP and TTMP at pH 7.0; for specificity for TRAP5b over TRAP5a compared with the commercial pNPP based assay: relative to pNPP-based assay; for TRAP5 Specific Activity 5B: serum-derived TRAP5b
Procedure: as §2, §3
The TRAP5 protein concentration in the TRAP5a and TRAP5b preparations was determined by a sandwich immunoassay. 100-200 μL sample per well was applied to O1A-coated microtitre plates and incubated overnight at 4° C. The plate was washed three times with 10 mM phosphate buffered saline, 0.05% Tween 20, and 100-200 μL of a solution containing the rabbit anti-TRAP5 antibody at a dilution of 1:4000 was added per well. After 60 min incubation at ambient temperature the plate was washed as above and 100-200 μL of a solution containing anti-rabbit IgG-Horseradish peroxidase conjugate at a dilution of 1:5000 was added and incubated for 30 min at ambient temperature. After further washing as described above […] of TMB (BioFx Inc, part TMBW-0100-01) was added and incubated for 30 min at ambient temperature. The reactions were stopped by the addition of 100 μL 0.5M HCl and the absorbance at 450 nm was measured. TRAP5 protein concentrations were calculated by reference to a calibration curve prepared from baculovirus-derived recombinant human TRAP5.
as §6
TRAP5a and TRAP5b preparations were prepared and quantified with respect to TRAP5 mass as described in Example 3. A set of TRAP5 calibrators was prepared by incubating 225 μg baculovirus-derived recombinant human TRAP with 12 U chymotrypsin for 6 h at ambient temperature, preparing a series of dilutions from this material and assigning TRAP5 concentrations (in U/L) to these dilutions using the commercial TRAP5b immunoassay based on WO1999/050662. The TRAP5a and TRAP5b preparations were assayed by a commercial TRAP5b immunoassay based on WO1999/050662 which uses pNPP as substrate at pH 6.1 with the modification that the chymotrypsin-treated calibrators described above were substituted for those provided by the manufacturer. […]

TRAP5b [7] = test: Activity with phthalein monophosphate esters at 0.47 mg/mL, pH 7.4 (Example 8); format: biochemical, human; design: 5b Activity: unit not given here; conditions: 0.47 mg/mL in 100 mM MES pH7.4
Procedure: as §6, §7, §8

TRAP5a [8] = target: T1, TRAP5a; test: pH vs activity profile (Example 2, FIG. 2); format: biochemical; conditions: substrate 6 mg/mL in MES or MOPS buffers
Procedure: as §5

TRAP5b [9] = test: Time course of substrate hydrolysis on O1A-coated plates (Example 1, FIG. 1); format: biochemical, human; conditions: for specific activity of TRAP5b relative to that of TRAP5a: pH 7.0, from FIG. 1; for hydrolysis of substrate by TRAP5b: serum-derived TRAP5b, neutral pH (7.0) in Example 1
Procedure: as §2, §3, §4, §1

TRAP5b [10] = conditions: WO1999/050662 (pNPP), EP1598670 (2-chloro-4-nitrophenylphosphate); cited from earlier work

## O=C1OC(c2ccc(O)cc2)(c2ccc(OP(=O)(O)O)cc2)c2ccccc21 (centres unmarked) [PTMP, Phenolphthalein monophosphate]
TRAP5a [1]; peak TRAP5a fraction 53
  TRAP5a detected, as share of the TRAP5a detected by the pNPP-based assay: 16%
TRAP5a [2]
  hydrolysis of substrate by TRAP5a: readily hydrolyze; also recorded: hydrolised
TRAP5a [3]; from specific activities, PTMP pH 7.0 vs pNPP pH 6.1
  TRAP5a detected, as share of the TRAP5a detected by the pNPP-based assay: 20%
TRAP5a [3]
  TRAP5 Specific Activity 5A: 0.035 U/μg
TRAP5b [4]
  pH of maximal activity (pH optimum) of TRAP5b: 7.0 pH
TRAP5a [5]
  5a Activity: 0.0110
TRAP5b [6]
  Ratio 5B:5A of specific activity: 47.5
  specificity for TRAP5b over TRAP5a compared with the commercial pNPP based assay: ~4.75 fold
  TRAP5 Specific Activity 5B: 1.68 U/μg
TRAP5b [7]
  5b Activity: 0.3664
  Ratio of 5b:5a activity: 33.3
TRAP5a [8]
  pH of maximal activity (pH optimum) of TRAP5a: ~6.0 pH
TRAP5b [9]
  specific activity of TRAP5b relative to that of TRAP5a: approximately 50 times
  hydrolysis of substrate by TRAP5b: readily hydrolyze; also recorded: hydrolised

## O=P(O)(O)Oc1ccc(C2(c3ccc(O)cc3)OS(=O)(=O)c3ccccc32)cc1 (centres unmarked) [Phenol Red, Phenol Red monophosphate]
TRAP5a [5]
  5a Activity: 0.0067
TRAP5b [7]
  5b Activity: 0.3558
  Ratio of 5b:5a activity: 53.1

## Cc1cc(O)c(C(C)C)cc1C1(c2cc(C(C)C)c(OP(=O)(O)O)cc2C)OC(=O)c2ccccc21 (centres unmarked) [TTMP, Thymolphthalein monophosphate]
TRAP5a [2]
  hydrolysis of substrate by TRAP5a: readily hydrolyze; also recorded: hydrolised
TRAP5a [3]
  TRAP5 Specific Activity 5A: 0.035 U/μg
TRAP5b [6]
  Ratio 5B:5A of specific activity: 65.3
  specificity for TRAP5b over TRAP5a compared with the commercial pNPP based assay: ~6.5 fold
  TRAP5 Specific Activity 5B: 2.3 U/μg
TRAP5b [9]
  specific activity of TRAP5b relative to that of TRAP5a: approximately 70 times
  hydrolysis of substrate by TRAP5b: readily hydrolyze; also recorded: hydrolised

## O=[N+]([O-])c1ccc(OP(=O)(O)O)cc1 [pNPP, p-nitrophenyl phosphate, reference compound]
TRAP5a [1]; normal human serum, CM-Sepharose fractions
  share of the material measured as TRAP5b that is actually TRAP5a: around 40%
TRAP5b [10]
  pH optimum of TRAP5b: ~5.9 pH
TRAP5a [3]
  TRAP5 Specific Activity 5A: 0.177 U/μg
TRAP5b [6]
  Ratio 5B:5A of specific activity: 9 and 9.04
  TRAP5 Specific Activity 5B: 1.60 U/μg
